Experimental findings from patent publication US8569316B2, “Pyrimido [5,4-D] pyrimidine derivatives for the inhibition of tyrosine kinases” (Boehringer Ingelheim International GmbH, priority 2009, dated 2013) are described below.

Bounds are passed on as bounds.

Chain of B-Raf (V600E)-kinase (P15056 whole entry V600E): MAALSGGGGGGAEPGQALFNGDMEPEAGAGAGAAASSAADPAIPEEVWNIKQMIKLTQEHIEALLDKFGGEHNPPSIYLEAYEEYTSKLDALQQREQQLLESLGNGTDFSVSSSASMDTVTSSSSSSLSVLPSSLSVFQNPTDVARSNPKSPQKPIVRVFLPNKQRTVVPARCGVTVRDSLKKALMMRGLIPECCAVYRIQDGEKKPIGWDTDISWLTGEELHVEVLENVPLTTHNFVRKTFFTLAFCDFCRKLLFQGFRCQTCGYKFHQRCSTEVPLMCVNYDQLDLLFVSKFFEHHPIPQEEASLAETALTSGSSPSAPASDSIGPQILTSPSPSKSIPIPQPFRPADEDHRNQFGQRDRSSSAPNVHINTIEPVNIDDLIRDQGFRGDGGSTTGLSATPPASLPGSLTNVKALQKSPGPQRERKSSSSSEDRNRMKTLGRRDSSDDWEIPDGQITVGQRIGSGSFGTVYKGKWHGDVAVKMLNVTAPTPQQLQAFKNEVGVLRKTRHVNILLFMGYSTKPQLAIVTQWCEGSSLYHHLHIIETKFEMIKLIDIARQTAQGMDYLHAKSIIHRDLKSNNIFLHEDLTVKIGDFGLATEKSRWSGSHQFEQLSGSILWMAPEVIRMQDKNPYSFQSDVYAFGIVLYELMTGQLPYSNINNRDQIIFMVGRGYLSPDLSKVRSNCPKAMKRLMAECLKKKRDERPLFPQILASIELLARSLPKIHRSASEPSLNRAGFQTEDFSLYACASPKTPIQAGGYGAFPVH

For the assay, the target named is B-Raf (V600E)-kinase (Homo sapiens (Human), UniProt P15056, V600E). Description: Kinase test B-Raf (V600E). It is filed as biochemical. Conditions: 250 μM ATP, biotinylated MEK1 substrate. The procedure:
In a dilution series 10 μL of test substance solution are placed in a multiwell plate. The dilution series is selected so that generally a range of concentrations of 2 μM to 0.128 nM or 0.017 nM is covered. If necessary the initial concentration of 2 μM is changed to 50 μM, 10 μM or 0.4 μM or 0.2857 μM and further dilution is carried out accordingly. The final concentration of DMSO is 5%. 10 μL of the B-Raf (V600E)-kinase solution are pipetted in (containing 0.5 ng B-Raf (V600E)-kinase in 20 mM Tris-HCl pH 7.5, 0.1 mM EDTA, 0.1 mM EGTA, 0.286 mM sodium orthovanadate, 10% glycerol, 1 mg/mL bovine serum albumin, 1 mM dithiothreitol) and the mixture is incubated for 1 h at RT under with shaking. The kinase reaction is started by the addition of 20 μL ATP solution [final concentration: 250 μM ATP, 30 mM Tris-HCl pH 7.5, 0.02% Brij, 0.2 mM sodium orthovanadate, 10 mM magnesium acetate, phosphatase cocktail (Sigma, #P2850, dilution recommended by the manufacturer), 0.1 mM EGTA] and 10 μL MEK1 solution [containing 50 ng biotinylated MEK1 (prepared from purified MEK1 according to standard procedure, e.g. with EZ-Link Sulpho-NHS-LC-Biotin reagent, Pierce, #21335) in 50 mM Hepes pH 7.5, 150 mM NaCl, 10% glycerol, 0.02% Brij-35, 0.2 mM PMSF, 0.2 mM benzamidine] and carried out for 60 min at RT with constant shaking. The reaction is stopped by the addition of 12 μL of a 100 mM EDTA solution and incubation is continued for a further 5 min. 55 μL of the reaction solution are transferred into a streptavidin-coated plate (e.g. Streptawell HighBond, Roche, #11989685001) and shaken gently for 1 h at RT, in order to bind biotinylated MEK1 to the plate. After elimination of the liquid the plate is washed five times with 200 μL of 1×PBS and 100 μL solution of primary antibody plus europium-labelled secondary antibody [Anti Phospho-MEK (Ser217/221), Cell Signaling, #9121 and Eu-N1 labeled goat-anti-rabbit antibody, Perkin Elmer, #AD0105], the primary antibody is diluted 1:2000 and the secondary antibody is diluted to 0.4-0.5 μg/mL in Delfia Assay Buffer (Perkin Elmer, #1244-111). After 1 h shaking at RT the solution is poured away and washed five times with 200 μL Delfia Wash Buffer (Perkin Elmer, #4010-0010/#1244-114). After the addition of 200 μL Enhancement Solution (Perkin Elmer, #4001-0010/#1244-105) the mixture is shaken for 10 min at RT and then measured in a Wallac Victor using the program “Delfia Time Resolved Fluorescence (Europium)”. IC50 values are obtained from these dosage-activity curves using a software program (GraphPadPrizm).
The compound `COc1ccc(NC(=O)c2ccc(C)c(Nc3ncnc4cnc(N5CCOCC5)cc34)c2)cc1C(F)(F)F` [I-1] displayed an IC50 of 106 nM.

`COc1ccc(NC(=O)c2ccc(C)c(Nc3ncnc4cnc(N5CCN(C)CC5)cc34)c2)cc1C(F)(F)F` [I-2] gave an IC50 of 224 nM.

`COc1ccc(NC(=O)c2ccc(C)c(Nc3ncnc4cnc(N5CCCC5)cc34)c2)cc1C(F)(F)F` [I-3] yielded an IC50 of 316 nM.

With `Cc1ccc(C(=O)N2CCOCC2)cc1Nc1ncnc2cnc(N3CCOCC3)cc12` [I-4], the concentration for half-maximal inhibition (IC50) was over 1400 nM.

`COc1ccc(NC(=O)c2ccc(C)c(Nc3ncnc4ccc(N5CCOCC5)nc34)c2)cc1C(F)(F)F` [III-1] gave an IC50 of 11 nM.

`Cc1ccc(C(=O)Nc2cc(C(C)(C)C)on2)cc1Nc1ncnc2ccc(N3CCOCC3)nc12` [III-2] returned an IC50 of 32 nM.

In turn, `Cc1ccc(C(=O)Nc2cccc(C(C)(C)C#N)c2)cc1Nc1ncnc2ccc(N3CCOCC3)nc12` [III-3] returned an IC50 of 7 nM.

The compound `Cc1ccc(C(=O)n2nc(C(C)(C)C)cc2N)cc1Nc1ncnc2ccc(N3CCOCC3)nc12` [III-4] registered an IC50 of 2060 nM.

Compound `Cc1ccc(C(=O)Nc2cc(C(C)(C)C)n[nH]2)cc1Nc1ncnc2ccc(N3CCOCC3)nc12` [III-5] showed an IC50 of 7 nM.

Consider `Cc1ccc(C(=O)Nc2cc(C(C)(C)C)nn2C)cc1Nc1ncnc2ccc(N3CCOCC3)nc12` [III-6], for which the IC50 was found to be 15 nM.

For the compound `Cc1ccc(C(=O)Nc2cc(N3CCN(C)CC3)cc(C(F)(F)F)c2)cc1Nc1ncnc2ccc(N3CCOCC3)nc12` [III-7], 4 nM corresponded to half-maximal inhibition (IC50).

On to `Cc1ccc(C(=O)Nc2cc(N3CCCN(C)CC3)cc(C(F)(F)F)c2)cc1Nc1ncnc2ccc(N3CCOCC3)nc12` [III-8], for which the IC50 came out at 5 nM.

With `Cc1ccc(C(=O)Nc2cc(CN3CCCC3)cc(C(F)(F)F)c2)cc1Nc1ncnc2ccc(N3CCOCC3)nc12` [III-9], the IC50 worked out at 4 nM.

Compound `Cc1ccc(C(=O)Nc2cc(C(C)(C)C)on2)cc1Nc1ncnc2ccc(N3CCN(C)CC3)nc12` [III-10] yielded an IC50 of 12 nM.

In turn, `COCCN1CCN(c2ccc3ncnc(Nc4cc(C(=O)Nc5cc(C(C)(C)C)on5)ccc4C)c3n2)CC1` [III-11] yielded an IC50 of 35 nM.

As for `Cc1ccc(C(=O)Nc2cc(C(C)(C)C)on2)cc1Nc1ncnc2ccc(N3CCN(CC4CCN(C)CC4)CC3)nc12` [III-12], the IC50 worked out at 12 nM.

Consider `COc1ccc(NC(=O)c2ccc(C)c(Nc3ncnc4ccc(N5CCN(C)CC5)nc34)c2)cc1C(F)(F)F` [III-13], for which the IC50 came to 57 nM.

As for `COCCN1CCN(c2ccc3ncnc(Nc4cc(C(=O)Nc5ccc(OC)c(C(F)(F)F)c5)ccc4C)c3n2)CC1` [III-14], the IC50 was 140 nM.

As for `COc1ccc(NC(=O)c2ccc(C)c(Nc3ncnc4ccc(N5CCN(CC6CCN(C)CC6)CC5)nc34)c2)cc1C(F)(F)F` [III-15], half-maximal inhibition (IC50) required 26 nM.

In the case of `COc1ccc(NC(=O)c2ccc(C)c(Nc3ncnc4ccc(N(C)C)nc34)c2)cc1C(F)(F)F` [III-16], the half-maximal inhibitory concentration (IC50) was determined as 44 nM.

As for `Cc1ccc(C(=O)Nc2cc(C(C)(C)C)on2)cc1Nc1ncnc2ccc(N(C)C)nc12` [III-17], it took 9 nM to reach half-maximal inhibition (IC50).

For `COc1c(NC(=O)c2ccc(C)c(Nc3ncnc4ccc(N5CCN(C)CC5)nc34)c2)cc(C(C)(C)C)cc1NS(C)(=O)=O` [III-18], inhibition was half-maximal at 225 nM (IC50).

The compound `COCCN1CCN(c2ccc3ncnc(Nc4cc(C(=O)Nc5cc(C(C)(C)C)cc(NS(C)(=O)=O)c5OC)ccc4C)c3n2)CC1` [III-19] returned an IC50 of 476 nM.

In turn, `COc1c(NC(=O)c2ccc(C)c(Nc3ncnc4ccc(N(C)C5CCOC5)nc34)c2)cc(C(C)(C)C)cc1NS(C)(=O)=O` (stereo not drawn) [III-20] had an IC50 of 24 nM.

Regarding `COc1c(NC(=O)c2ccc(C)c(Nc3ncnc4ccc(NC5CCOC5)nc34)c2)cc(C(C)(C)C)cc1NS(C)(=O)=O` (stereo not drawn) [III-21], it took 30 nM to reach half-maximal inhibition (IC50).

With `COc1c(NC(=O)c2ccc(C)c(Nc3ncnc4ccc(N5CC[C@@H](F)C5)nc34)c2)cc(C(C)(C)C)cc1NS(C)(=O)=O` [III-22], the IC50 was 25 nM.

`CCN1CCN(c2ccc3ncnc(Nc4cc(C(=O)Nc5cc(C(C)(C)C)cc(NS(C)(=O)=O)c5OC)ccc4C)c3n2)CC1` [III-23] showed an IC50 of 508 nM.

For orientation: IC50 means the midpoint of a concentration-inhibition curve.
